We go through 26 molecules from patent US10450270B2, “Glyoxamide substituted pyrrolamide derivatives and the use thereof as medicaments for the treatment of hepatitis B” (Janssen Sciences Ireland UC, priority 2013, dated 2019).

Some results are limits rather than exact numbers.

In one data set the test system is HBV. Put plainly: Anti-HBV activity, HepG2.117 inducible HBV producing cell line (Tet-off), intracellular HBV DNA by realtime PCR. The data set is classed as cell-based. The note with it: Hepatitis B virus, 72 h; HepG2.117 cells, 3 days of treatment, intracellular HBV DNA; read-out: HepG2 117 EC50.
Data set [1] in a line: Cytotoxicity in HepG2 cells, Resazurin viability assay. The note with it: human, HepG2 cells. Background: The colour change of resazurin is a common sign of viable cells or microbes.

By EC50 is commonly meant the concentration giving half of the maximal effect. Broadly, the CC50 is the concentration giving 50% cytotoxicity. `Cc1c(C(=O)C(=O)NC2(C(F)(F)F)CCOC2)c(Cl)c(C(=O)Nc2ccc(F)c(C#N)c2)n1C` (racemic) [Compound 41, 3-chloro-N-(3-cyano-4-fluoro-phenyl)-1,5-dimethyl-4-[2-oxo-2-[[3-(tri-fluoromethyl)tetrahydrofuran-3-yl]amino]acetyl]pyrrole-2-carboxamide]: in the data set on HBV, the EC50 amounted to 3 nM. The molecule also yielded a cytotoxic concentration (CC50) at 4 days in data set [1] greater than 25000 nM.

As to `C[C@@H](NC(=O)C(=O)c1cc(C(=O)Nc2ccc(F)c(C#N)c2)n(C)c1Br)C(F)(F)F` [Compound 25, 5-bromo-N-(3-cyano-4-fluoro-phenyl)-1-methyl-4-[2-oxo-2-[[(1R)-2,2,2-trifluoro-1-methyl-ethyl]amino]acetyl]pyrrole-2-carboxamide], the EC50 in the data set with HBV was greater than 1000 nM. In data set [1], this molecule showed a CC50 at 4 days greater than 25000 nM.

On to `C[C@@H](NC(=O)C(=O)c1cn(C)c(C(=O)Nc2ccc(F)c(C#N)c2)c1Br)C(F)(F)F` [Compound 26, 3-bromo-N-(3-cyano-4-fluoro-phenyl)-1-methyl-4-[2-oxo-2-[[(1R)-2,2,2-trifluoro-1-methyl-ethyl]amino]acetyl]pyrrole-2-carboxamide], for which the EC50 with HBV was 70 nM. Further, the CC50 at 4 days in data set [1] was greater than 25000 nM.

For the molecule `C[C@@H](NC(=O)C(=O)c1c(Br)c(C(=O)Nc2ccc(F)c(C#N)c2)n(C)c1Br)C(F)(F)F` [Compound 27, 3,5-dibromo-N-(3-cyano-4-fluoro-phenyl)-1-methyl-4-[2-oxo-2-[[(1R)-2,2,2-trifluoro-1-methyl-ethyl]amino]acetyl]pyrrole-2-carboxamide], the EC50 with HBV was found to be 5 nM. The molecule further displayed a CC50 at 4 days in data set [1] greater than 25000 nM.

With `C[C@@H](NC(=O)C(=O)c1c(Cl)c(C(=O)Nc2ccc(F)c(C#N)c2)n(C)c1Br)C(F)(F)F` [Compound 29, 5-bromo-3-chloro-N-(3-cyano-4-fluoro-phenyl)-1-methyl-4-[2-oxo-2-[[(1R)-2,2,2-trifluoro-1-methyl-ethyl]amino]acetyl]pyrrole-2-carboxamide], in the data set with HBV, the EC50 came out at 14 nM. The same molecule gave a CC50 at 4 days in data set [1] greater than 25000 nM.

`Cn1c(C(=O)Nc2ccc(F)c(C#N)c2)c(Cl)c(C(=O)C(=O)NC(C)(C)C)c1C(F)(F)F` [Compound 33, 4-[2-(tert-butylamino)-2-oxo-acetyl]-3-chloro-N-(3-cyano-4-fluoro-phenyl)-1-methyl-5-(trifluoromethyl)pyrrole-2-carboxamide]: the EC50 with HBV came to 247 nM. Besides, in data set [1], the CC50 at 4 days is greater than 25000 nM.

`Cn1cc(C(=O)C(=O)NC(C)(C)C)c(F)c1C(=O)Nc1ccc(F)c(C#N)c1` [Compound 34, 4-[2-(tert-butylamino)-2-oxo-acetyl]-N-(3-cyano-4-fluoro-phenyl)-3-fluoro-1-methyl-pyrrole-2-carboxamide]: the EC50 with HBV was 9 nM. In addition, the CC50 at 4 days in data set [1] was greater than 25000 nM.

In the case of `Cn1cc(C(=O)C(=O)NC2(C)CC(F)(F)C2)c(F)c1C(=O)Nc1ccc(F)c(C#N)c1` [Compound 35, N-(3-cyano-4-fluoro-phenyl)-4-[2-[(3,3-difluoro-1-methyl-cyclobutyl)-amino]-2-oxo-acetyl]-3-fluoro-1-methyl-pyrrole-2-carboxamide], in the data set on HBV, the EC50 came to 4 nM. The same molecule displayed a CC50 at 4 days in data set [1] greater than 25000 nM.

Consider `Cc1c(C(=O)C(=O)NC(C)(C)C)c(F)c(C(=O)Nc2ccc(F)c(C#N)c2)n1C` [Compound 36, 4-[2-(tert-butylamino)-2-oxo-acetyl]-N-(3-cyano-4-fluoro-phenyl)-3-fluoro-1,5-dimethyl-pyrrole-2-carboxamide], for which the EC50 in the data set with HBV is less than 4 nM. The same molecule returned a CC50 at 4 days in data set [1] greater than 25000 nM.

Take `Cc1c(C(=O)C(=O)NC2(C)CC(F)(F)C2)c(F)c(C(=O)Nc2ccc(F)c(C#N)c2)n1C` [Compound 37, N-(3-cyano-4-fluoro-phenyl)-4-[2-[(3,3-difluoro-1-methyl-cyclobutyl)-amino]-2-oxo-acetyl]-3-fluoro-1,5-dimethyl-pyrrole-2-carboxamide]: the EC50 in the data set on HBV was 2 nM. Moreover, the CC50 at 4 days in data set [1] was greater than 25000 nM.

Consider `CC[C@@H](NC(=O)C(=O)c1cn(C)c(C(=O)Nc2ccc(F)c(C#N)c2)c1Cl)C(F)(F)F` [Compound 38, 3-chloro-N-(3-cyano-4-fluoro-phenyl)-1-methyl-4-[2-oxo-2-[[(1R)-1-(trifluoromethyl)propyl]amino]acetyl]pyrrole-2-carboxamide], for which, in the data set on HBV, the EC50 was 15 nM. In data set [1], this molecule came in with a CC50 at 4 days greater than 25000 nM.

For `Cn1cc(C(=O)C(=O)NC2(C(F)(F)F)CCC2)c(Cl)c1C(=O)Nc1ccc(F)c(C#N)c1` [Compound 39, 3-chloro-N-(3-cyano-4-fluoro-phenyl)-1-methyl-4-[2-oxo-2-[[1-(tri-fluoromethyl)cyclobutyl]amino]acetyl]pyrrole-2-carboxamide], the concentration for a half-maximal effect (EC50) in the data set on HBV amounted to 6 nM. This molecule also gave a CC50 at 4 days in data set [1] greater than 25000 nM.

With `Cn1cc(C(=O)C(=O)NC2(C)CC(F)(F)C2)c(Cl)c1C(=O)Nc1ccc(F)c(C#N)c1` [Compound 40, 3-chloro-N-(3-cyano-4-fluoro-phenyl)-4-[2-[(3,3-difluoro-1-methyl-cyclobutyl)amino]-2-oxo-acetyl]-1-methyl-pyrrole-2-carboxamide], in the data set on HBV, the EC50 was found to be 7 nM. The molecule also returned a CC50 at 4 days in data set [1] greater than 25000 nM.

For the molecule `CC[C@@H](NC(=O)C(=O)c1c(Cl)c(C(=O)Nc2ccc(F)c(C#N)c2)n(C)c1C)C(F)(F)F` [Compound 42, 3-chloro-N-(3-cyano-4-fluoro-phenyl)-1,5-dimethyl-4-[2-oxo-2-[[(1R)-1-(trifluoromethyl)propyl]amino]acetyl]pyrrole-2-carboxamide], in the data set with HBV, the EC50 stood at 2 nM. In data set [1], this molecule showed a CC50 at 4 days greater than 25000 nM.

`Cc1c(C(=O)C(=O)NC2(C(F)(F)F)CCC2)c(Cl)c(C(=O)Nc2ccc(F)c(C#N)c2)n1C` [Compound 43, 3-chloro-N-(3-cyano-4-fluoro-phenyl)-1,5-dimethyl-4-[2-oxo-2-[[1-(tri-fluoromethyl)cyclobutyl]amino]acetyl]pyrrole-2-carboxamide]: in the data set with HBV, the EC50 was 3 nM. In data set [1], this molecule showed a CC50 at 4 days greater than 25000 nM.

For the molecule `Cc1c(C(=O)C(=O)NC2(C)COC2)c(Cl)c(C(=O)Nc2ccc(F)c(C#N)c2)n1C` [Compound 44, 3-chloro-N-(3-cyano-4-fluoro-phenyl)-1,5-dimethyl-4-[2-[(3-methyloxetan-3-yl)amino]-2-oxo-acetyl]pyrrole-2-carboxamide], the EC50 with HBV was determined as 3 nM. Moreover, in data set [1], the CC50 at 4 days is greater than 25000 nM.

Regarding `Cc1c(C(=O)C(=O)NC(C)C)c(Cl)c(C(=O)Nc2ccc(F)c(C#N)c2)n1C` [Compound 45, 3-chloro-N-(3-cyano-4-fluoro-phenyl)-4-[2-(isopropylamino)-2-oxo-acetyl]-1,5-dimethyl-pyrrole-2-carboxamide], the EC50 with HBV was determined as 6 nM. The CC50 at 4 days in data set [1] was greater than 25000 nM.

For `Cc1c(C(=O)C(=O)N[C@H](C)C(C)(F)F)c(Cl)c(C(=O)Nc2ccc(F)c(C#N)c2)n1C` [Compound 46, 3-chloro-N-(3-cyano-4-fluoro-phenyl)-4-[2-[[(1R)-2,2-difluoro-1-methyl-propyl]amino]-2-oxo-acetyl]-1,5-dimethyl-pyrrole-2-carboxamide], the EC50 in the data set with HBV came out at 3 nM. Further, in data set [1], the CC50 at 4 days is greater than 25000 nM.

In the case of `Cc1c(C(=O)C(=O)NC2(C)CC(F)(F)C2)c(Cl)c(C(=O)Nc2ccc(F)c(C#N)c2)n1C` [Compound 47, 3-chloro-N-(3-cyano-4-fluoro-phenyl)-4-[2-[(3,3-difluoro-1-methyl-cyclo-butyl)amino]-2-oxo-acetyl]-1,5-dimethyl-pyrrole-2-carboxamide], in the data set with HBV, the EC50 was less than 4 nM. For the same molecule, in data set [1], the CC50 at 4 days is greater than 25000 nM.

In the case of `Cn1c(C(=O)Nc2ccc(F)c(C#N)c2)c(Cl)c(C(=O)C(=O)NC(C)(C)C)c1C1CC1` [Compound 48, 4-[2-(tert-butylamino)-2-oxo-acetyl]-3-chloro-N-(3-cyano-4-fluoro-phenyl)-5-cyclopropyl-1-methyl-pyrrole-2-carboxamide], in the data set with HBV, the EC50 worked out at 22 nM. The molecule further registered a CC50 at 4 days in data set [1] greater than 25000 nM.

In the case of `Cn1c(C#N)c(C(=O)C(=O)NC(C)(C)C)c(Cl)c1C(=O)Nc1ccc(F)c(C#N)c1` [Compound 49, 4-[2-(tert-butylamino)-2-oxo-acetyl]-3-chloro-5-cyano-N-(3-cyano-4-fluoro-phenyl)-1-methyl-pyrrole-2-carboxamide], in the data set with HBV, the EC50 was found to be 34 nM. The same molecule displayed a CC50 at 4 days in data set [1] greater than 25000 nM.

`Cn1c(Br)c(C(=O)C(=O)NC(C)(C)C)c(Cl)c1C(=O)Nc1ccc(F)c(C#N)c1` [Compound 50, 5-bromo-4-[2-(tert-butylamino)-2-oxo-acetyl]-3-chloro-N-(3-cyano-4-fluoro-phenyl)-1-methyl-pyrrole-2-carboxamide]: the EC50 with HBV was found to be 4 nM. Also, the CC50 at 4 days in data set [1] was greater than 25000 nM.

Consider `C[C@H](NC(=O)C(=O)c1cc(C(=O)Nc2ccc(F)c(C#N)c2)n(C)c1)C(F)(F)F` [Compound 51, N-(3-cyano-4-fluoro-phenyl)-1-methyl-4-[2-oxo-2-[[(1S)-2,2,2-trifluoro-1-methyl-ethyl]amino]acetyl]pyrrole-2-carboxamide], for which the EC50 with HBV is 42 nM. The molecule also came in with a CC50 at 4 days in data set [1] greater than 25000 nM.

Take `Cc1c(C(=O)C(=O)NC(C)C)cc(C(=O)Nc2ccc(F)c(C#N)c2)n1C` [Compound 52, N-(3-cyano-4-fluoro-phenyl)-4-[2-(isopropylamino)-2-oxo-acetyl]-1,5-dimethyl-pyrrole-2-carboxamide]: the concentration for a half-maximal effect (EC50) in the data set on HBV stood at 67 nM. The molecule further came in with a CC50 at 4 days in data set [1] greater than 25000 nM.

On to `CC[C@@H](C)NC(=O)C(=O)c1cc(C(=O)Nc2ccc(F)c(C#N)c2)n(C)c1C` [Compound 53, N-(3-cyano-4-fluoro-phenyl)-1,5-dimethyl-4-[2-[[(1R)-1-methylpropyl]-amino]-2-oxo-acetyl]pyrrole-2-carboxamide], for which the EC50 in the data set on HBV was 39 nM. In data set [1], this molecule showed a CC50 at 4 days greater than 25000 nM.

Take `Cc1c(C(=O)C(=O)N[C@H](C)C(C)(F)F)cc(C(=O)Nc2ccc(F)c(C#N)c2)n1C` [Compound 54, N-(3-cyano-4-fluoro-phenyl)-4-[2-[[(1R)-2,2-difluoro-1-methyl-propyl]-amino]-2-oxo-acetyl]-1,5-dimethyl-pyrrole-2-carboxamide]: in the data set with HBV, the EC50 amounted to 10 nM. The same molecule showed a CC50 at 4 days in data set [1] greater than 25000 nM.
